Results taken from PubChem BioAssay AID2250 (Sanford-Burnham Center for Chemical Genomics, 2010).
Active and inactive are the calls of the source. How the calls were made is not given here.

Tested on: MCF-7/NOD1 cells, GM-Tri-DAP induced IL-8 secretion
Assay: inhibition of NOD1-driven IL-8 release, SAR follow-up, MCF-7/NOD1 cells, GM-Tri-DAP stimulus (AID 2250)

| SMILES | IC50 |
| --- | --- |
| Cc1ccc(S(=O)(=O)n2c(N)nc3cc(C)c(C)cc32)cc1 | > 5 µM (inactive) |
| O=C(O)c1c(NC(=O)N2CCOCC2)sc2c1CCCC2 | > 25 µM (inactive) |
